Data as given in patent US11766496B2, “Antimicrobial fabric freshening compositions containing octenidine dihydrochloride” (The Procter & Gamble Company, priority 2019, dated 2023).
Values after ≈ are worked out from the molar mass of the structure shown.

Legend:
Type in all cases: cell-based
[1] = tested on: Escherichia coli (E. coli—ATCC #8739); assay: Minimum Biocidal Concentration (MBC) in suspension
Experimental: (§1) The antimicrobial efficacy of the antimicrobial agent in the composition is determined by measuring its Minimum Biocidal Concentration (MBC). The MBC is defined as the lowest absolute concentration of the particular antimicrobial active which provides complete kill (zero bacterial growth). The MBC of the compositions herein was determined against the bacterium, Staphylococcus aureus (S. aureus—ATCC #6538), a gram positive bacterium, and against Escherichia coli (E. coli—ATCC #8739), a gram negative bacterium. These microorganisms are representative of natural contaminants in many consumer and industrial applications. The bacteria inoculum was prepared by transferring several colonies from a Tryptone Soy Agar (TSA) plate to a saline solution (0.85% NaCl), the bacteria concentration in this saline solution was determined by measuring the % Transmittance at 425 nm and adjusted by either adding more bacteria or more saline solution until the % Transmittance at 425 nm was between 23-25% for S. aureus, and between 30-32% for E. coli, this % transmittance corresponds to a bacteria concentration of 10^8 CFU/ml. […] Each subsequent well (rows B to G) were dosed with 100 μL of the same fabric refresher composition, without the addition of the antimicrobial agent. 100 μL of the fabric refresher composition comprising the antimicrobial active was transferred from row A to row B and mixed. 100 μL of the composition was then transferred from row B to row C and mixed, and the process repeated to row G. As such, the concentration of the antimicrobial agent underwent two-fold dilution in adjacent wells, while the concentration of the other actives in the fabric refresher composition remained constant across all the wells in the same column. 10 μL of the 10^8 CFU/ml bacteria suspension in saline was added to wells A to F of the microtiter plate with row G kept as a nil bacteria control. The final volume in each well was 110 μL, except for row G which comprised 100 μL of the fabric refresher composition and no bacteria suspension. […] The plate was incubated at 32.5° C. for 48 h. MBC concentration is taken as the lowest concentration of the antimicrobial active at which no visible colony growth is observed on the TSA plate. The antibacterial efficacy of the bispyridinium alkane octenidine hydrochloride was compared to that of quaternary ammonium and alkylamine antimicrobial compounds in two fabric freshening compositions.

[2] = tested on: Staphylococcus aureus (S. aureus—ATCC #6538); assay: Minimum Biocidal Concentration (MBC) in suspension
Experimental: as §1

[3] = tested on: Staphylococcus aureus (S. aureus—ATCC #6538); assay: Antibacterial efficacy on fabrics (cotton carriers); settings: cotton fabric carriers; 0.05% antimicrobial active; 10 mins contact time; 5% horse serum soil load
Experimental: The bactericidal efficacy on fabric surfaces of fabric refresher compositions comprising different antimicrobial agents was determined against the bacterium, Staphylococcus aureus (S. aureus—ATCC #6538). The bacteria inoculum was prepared by transferring several colonies from a Tryptone Soy Agar (TSA) plate to a saline solution (0.85% NaCl) comprising 5% horse serum as additional soil load, the bacteria concentration in this saline solution was determined by measuring the % Transmittance at 425 nm and adjusted by either adding more bacteria or more saline solution until the % Transmittance at 425 nm is between 23-25% which corresponds to a bacteria concentration of 10^8 CFU/ml.
Fabric carriers, 1 cm×1 cm disks of cotton sterilized by autoclaving, were inoculated with 50 μL of the 10^8 CFU/ml bacteria inoculum and incubated for 30 mins at 32° C. After this incubation period, fabric carriers were treated with 2.5 ml of different fabric refresher compositions comprising no antimicrobial active (reference), or 0.05% of either bispyridinium alkane (octenidine dihydrochloride) or N-(3-aminopropyl)-N-dodecylpropane-1,3-diamine (Lonzabac 12.30) as antimicrobial actives. […] 100 μL of each of the serial dilutions were plated on a TSA plate, plates were incubated at 32° C. for 48 hours, after this incubation time, the number of colonies in each plate was counted. […]

[4] = in fabric freshening Composition 1, 20 minutes contact time
[5] = in fabric freshening Composition 2, 20 minutes contact time

Compound | MBC (ppm) against E. coli [1, 4] [ppm] | MBC (ppm) against S. aureus [2, 4] [ppm] | MBC ([1]; Escherichia coli, ATCC8739, 20 min, in fabric freshening Composition 1, 20 minutes contact time, read-out: MBC (ppm) against E. coli) [µg/mL] | MBC (ppm) against E. coli [1, 5] [ppm] | MBC ([2]; Staphylococcus aureus, ATCC6538, 20 min, in fabric freshening Composition 1, 20 minutes contact time, read-out: MBC (ppm) against S. aureus) [µg/mL] | MBC (ppm) against S. aureus [2, 5] [ppm] | Number of bacteria extracted from treated fabrics [3]
N-alkyl dimethyl benzyl ammonium chloride [N-alkyl dimethyl benzyl ammonium chloride (9)] | 3000 | 375 |  |  |  |  | 
CCCCCCCCCCCCN(CCCN)CCCN [N-(3-aminopropyl)-N-dodecylpropane-1,3-diamine] |  |  | 3000 (≈ 10 mM) | 3000 | 3000 (≈ 10 mM) | 3000 | about 10^4 CFU/ml
CCCCCCCCN=c1ccn(CCCCCCCCCCn2ccc(=NCCCCCCCC)cc2)cc1.Cl.Cl [Bispyridinium alkane (6), octenidine dihydrochloride] | 500 | 125 |  | 250 |  | 47 | no viable bacteria were recovered
N-alkyl dimethyl benzyl ammonium chloride [N-alkyl dimethyl benzyl ammonium chloride (10)] | 1500 | 562.5 |  |  |  |  | 
